Reference: the supplement of paper PMC6045584
± gives the standard deviation of the averaged measurements.

Experiments:
DASATINIB = compound: Cc1nc(Nc2ncc(C(=O)Nc3c(C)cccc3Cl)s2)cc(N2CCN(CCO)CC2)n1 [DASATINIB]; assay: surviving fraction relative to DMSO-only wells; higher = less growth inhibition; conditions: exposure time: 5 days
Method in brief: (§1)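 Tumour cell lines were seeded in log phase at 250–500 cells per well into 384-well plates. Starting 24 hours later, inhibitors were present continuously for five days at 0.5, 1, 5, 10, 50, 100, 500 and 1000 nM. Surviving fraction, from CellTiter-Glo luminescence, is normalised to the median of DMSO-only wells. Three screens per line were required, with replicate Pearson r >0.7 and median Z' >0.3 for a line to be kept.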

[1] = compound: C[C@@H](Oc1cc(-c2cnn(C3CCNCC3)c2)cnc1N)c1c(Cl)ccc(F)c1Cl; assay: as above; conditions: exposure time: 5 days
Method in brief: as §1

Row | Test System | surviving fraction (DASATINIB; 0.5 nM) | surviving fraction (DASATINIB; 1 nM) | surviving fraction (DASATINIB; 5 nM) | surviving fraction (DASATINIB; 10 nM) | surviving fraction (DASATINIB; 50 nM) | surviving fraction (DASATINIB; 100 nM) | surviving fraction (DASATINIB; 500 nM) | surviving fraction (DASATINIB; 1000 nM) | surviving fraction ([1]; 0.5 nM) | surviving fraction ([1]; 1 nM) | surviving fraction ([1]; 10 nM) | surviving fraction ([1]; 50 nM) | surviving fraction ([1]; 100 nM) | surviving fraction ([1]; 500 nM) | surviving fraction ([1]; 1000 nM) | surviving fraction ([1]; 5 nM)
1 | MFM223 BREAST | 0.778 ± 0.17 | 0.785 ± 0.2 | 0.767 ± 0.18 | 0.684 ± 0.05 | 0.834 ± 0.059 | 0.86 ± 0.1 | 0.788 ± 0.091 | 0.68 ± 0.06 | 0.7 ± 0.052 | 0.747 ± 0.044 | 0.751 ± 0.042 | 1.05 ± 0.14 | 0.934 ± 0.019 | 0.985 ± 0.064 | 0.836 ± 0.096 | 
2 | MG63 BONE | 0.899 ± 0.035 | 0.901 ± 0.013 | 0.785 ± 0.015 | 0.691 ± 0.0046 | 0.469 ± 0.0076 | 0.357 ± 0.012 | 0.204 ± 0.0021 | 0.194 ± 0.0071 | 0.898 ± 0.011 | 0.912 ± 0.016 |  | 0.91 ± 0.029 | 0.827 ± 0.023 | 0.711 ± 0.02 | 0.607 ± 0.004 | 
3 | MHM BONE | 0.966 ± 0.032 | 0.933 ± 0.058 | 0.846 ± 0.065 | 0.815 ± 0.049 | 0.686 ± 0.011 | 0.635 ± 0.0097 | 0.525 ± 0.0055 | 0.488 ± 0.018 | 0.982 ± 0.041 | 0.991 ± 0.02 | 0.993 ± 0.023 |  | 0.977 ± 0.011 | 0.905 ± 0.018 | 0.817 ± 0.012 | 0.991 ± 0.023
4 | NCIH441 LUNG | 0.994 ± 0.053 | 1.01 ± 0.052 | 0.878 ± 0.085 | 0.921 ± 0.046 | 0.846 ± 0.058 | 0.557 ± 0.056 | 0.462 ± 0.073 | 0.341 ± 0.046 | 0.999 ± 0.039 | 0.982 ± 0.03 | 0.998 ± 0.068 | 0.996 ± 0.046 | 0.885 ± 0.026 | 0.885 ± 0.11 | 0.652 ± 0.079 | 0.956 ± 0.045
5 | NOS1 BONE | 0.817 ± 0.083 | 0.726 ± 0.086 | 0.587 ± 0.026 | 0.464 ± 0.021 | 0.296 ± 0.004 | 0.256 ± 0.028 | 0.2 ± 0.026 | 0.193 ± 0.014 | 0.889 ± 0.05 | 0.856 ± 0.046 | 0.929 ± 0.1 | 1.17 ± 0.06 | 0.988 ± 0.04 | 0.742 ± 0.055 | 0.401 ± 0.026 | 
6 | NY BONE | 0.9257 ± 0.0085 | 0.881 ± 0.011 | 0.828 ± 0.015 | 0.753 ± 0.018 | 0.471 ± 0.018 | 0.366 ± 0.031 | 0.288 ± 0.012 | 0.263 ± 0.027 | 0.948 ± 0.02 | 0.9253 ± 0.0076 | 0.9633 ± 0.0086 | 0.9303 ± 0.0083 | 0.885 ± 0.022 | 0.701 ± 0.03 | 0.524 ± 0.018 | 0.959 ± 0.0089
7 | OS25HAL BONE | 0.88 ± 0.03 | 0.849 ± 0.013 | 0.849 ± 0.035 | 0.747 ± 0.035 | 0.686 ± 0.05 | 0.599 ± 0.074 | 0.45 ± 0.073 | 0.363 ± 0.045 | 0.913 ± 0.013 |  | 0.9 ± 0.014 | 0.969 ± 0.017 | 0.937 ± 0.016 | 0.813 ± 0.1 | 0.285 ± 0.043 | 0.92 ± 0.015
8 | OSHN BONE | 0.889 ± 0.016 | 0.9163 ± 0.0047 | 0.865 ± 0.035 | 0.83 ± 0.014 | 0.915 ± 0.012 | 0.891 ± 0.023 | 0.662 ± 0.13 | 0.46 ± 0.17 | 0.908 ± 0.013 | 0.9047 ± 0.0064 | 0.9 ± 0.01 | 0.992 ± 0.023 | 0.971 ± 0.018 | 0.868 ± 0.013 | 0.189 ± 0.029 | 0.91 ± 0.0079
9 | PCI30 HEADNECK | 0.916 ± 0.015 | 0.888 ± 0.076 | 0.966 ± 0.05 | 0.98 ± 0.028 | 0.747 ± 0.017 | 0.665 ± 0.036 | 0.528 ± 0.019 | 0.421 ± 0.05 | 0.959 ± 0.036 |  |  | 1.06 ± 0.076 | 1.11 ± 0.046 | 0.679 ± 0.039 | 0.513 ± 0.016 | 1.07 ± 0.058
10 | RDES SOFT TISSUE | 0.849 ± 0.23 | 0.762 ± 0.2 | 0.775 ± 0.067 | 0.767 ± 0.14 | 0.981 ± 0.09 | 0.934 ± 0.057 | 0.975 ± 0.059 | 0.9887 ± 0.0031 | 0.735 ± 0.13 | 0.716 ± 0.093 | 0.69 ± 0.075 | 1.02 ± 0.19 | 0.926 ± 0.17 | 1.26 ± 0.02 | 0.127 ± 0.023 | 0.832 ± 0.028
11 | S68 BREAST | 0.625 ± 0.11 | 0.51 ± 0.096 | 0.561 ± 0.11 | 0.419 ± 0.12 | 0.409 ± 0.029 | 0.418 ± 0.041 | 0.277 ± 0.053 | 0.298 ± 0.079 | 0.733 ± 0.09 | 0.819 ± 0.31 | 0.838 ± 0.19 |  | 0.847 ± 0.16 | 0.567 ± 0.19 | 0.398 ± 0.084 | 
12 | SAOS2 BONE | 0.842 ± 0.055 | 0.788 ± 0.024 | 0.62 ± 0.017 | 0.511 ± 0.043 | 0.475 ± 0.047 | 0.384 ± 0.023 | 0.274 ± 0.032 | 0.256 ± 0.015 | 0.7737 ± 0.0011 | 0.866 ± 0.018 | 0.874 ± 0.036 | 1.06 ± 0.08 | 0.971 ± 0.046 | 0.319 ± 0.012 | 0.164 ± 0.012 | 
13 | SCC003 HEADNECK | 0.877 ± 0.036 | 0.843 ± 0.068 | 0.899 ± 0.13 | 0.813 ± 0.076 | 0.827 ± 0.025 | 0.654 ± 0.046 | 0.263 ± 0.014 | 0.149 ± 0.023 | 0.763 ± 0.099 |  | 0.818 ± 0.03 | 1.04 ± 0.047 | 0.982 ± 0.047 | 0.672 ± 0.081 | 0.417 ± 0.025 | 0.835 ± 0.042
14 | SCC36 HEADNECK | 0.788 ± 0.13 | 0.676 ± 0.033 | 0.705 ± 0.078 | 0.678 ± 0.1 | 0.385 ± 0.078 | 0.19 ± 0.032 | 0.12 ± 0.013 | 0.112 ± 0.011 | 0.784 ± 0.039 | 0.784 ± 0.07 | 0.742 ± 0.071 | 0.913 ± 0.021 |  | 0.403 ± 0.022 | 0.255 ± 0.011 | 0.742 ± 0.077
15 | SCC47 HEADNECK | 0.961 ± 0.073 | 0.965 ± 0.067 | 0.971 ± 0.065 | 0.9 ± 0.039 | 0.698 ± 0.0083 | 0.38 ± 0.027 | 0.078 ± 0.011 | 0.0587 ± 0.0074 | 0.909 ± 0.012 | 0.9017 ± 0.0072 | 0.924 ± 0.037 | 1.06 ± 0.031 | 0.96 ± 0.066 | 0.721 ± 0.017 | 0.472 ± 0.024 | 0.988 ± 0.018
16 | SCC90 HEADNECK | 0.823 ± 0.081 | 0.868 ± 0.037 | 0.803 ± 0.071 | 0.85 ± 0.18 | 0.527 ± 0.05 | 0.542 ± 0.072 | 0.433 ± 0.095 | 0.468 ± 0.053 |  | 0.913 ± 0.028 |  | 1.12 ± 0.098 | 1.17 ± 0.13 | 0.717 ± 0.028 |  | 0.934 ± 0.045
17 | SG27 HEADNECK | 0.939 ± 0.12 | 1.01 ± 0.035 | 0.889 ± 0.15 | 0.736 ± 0.013 | 0.531 ± 0.0053 | 0.42 ± 0.038 | 0.35 ± 0.059 | 0.369 ± 0.064 | 1.01 ± 0.016 |  | 0.893 ± 0.07 | 1 ± 0.089 | 0.92 ± 0.045 |  | 0.668 ± 0.053 | 
18 | SG28 HEADNECK | 0.749 ± 0.055 | 0.772 ± 0.04 | 0.687 ± 0.028 | 0.534 ± 0.087 | 0.439 ± 0.033 | 0.329 ± 0.018 | 0.213 ± 0.016 | 0.204 ± 0.032 |  | 0.918 ± 0.053 |  | 1 ± 0.042 | 1.07 ± 0.098 |  | 0.764 ± 0.12 | 0.85 ± 0.067
